Key:
Assay in all cases: Post-Emergent Test III (Wheat and Barley)
[1] = system: PAPRH (common poppy); format: in vivo, Papaver rhoeas; conditions: for Visual Growth Reduction (%) 21 Days After Application, PAPRH: postemergence
Procedure, shortened: (§1)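 Injury was rated visually on a 0 to 100 percent scale 21 days after treatment, relative to untreated plants, and probit analysis of multiple dose rates gave growth-reduction values. Plants at the second or third true leaf stage had been track-sprayed at 187 L/ha.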

[2] = system: SASKR (Russian thistle); format: in vivo, Salsola tragus; conditions: for Visual Growth Reduction (%) 21 Days After Application, SASKR: postemergence
Procedure, shortened: as §1

[3] = system: APESV (windgrass); format: in vivo, Apera spica-venti
Procedure, shortened: as §1

[4] = system: KCHSC (kochia); format: in vivo, Kochia scoparia
Procedure, shortened: as §1

[5] = system: VERPE (Persian speedwell); format: in vivo, Veronica persica; conditions: for Visual Growth Reduction (%) 21 Days After Application, VERPE: postemergence
Procedure, shortened: as §1

[6] = system: LAMPU (purple deadnettle); format: in vivo, Lamium purpureum; conditions: for Visual Growth Reduction (%) 21 Days After Application, LAMPU: postemergence
Procedure, shortened: as §1

[7] = system: HORSS; format: in vivo
Procedure, shortened: as §1

[8] = system: TRZSS; format: in vivo
Procedure, shortened: as §1

[9] = system: POLCO (wild buckwheat); format: in vivo, Polygonum convolvulus; conditions: for Visual Growth Reduction (%) 21 Days After Application, POLCO: postemergence
Procedure, shortened: as §1

[10] = effective dose for growth reduction of 50 percent, probit analysis
[11] = effective dose for growth reduction of 80 percent, probit analysis
[12] = effective dose for growth reduction of 90 percent, probit analysis
[13] = effective dose for growth reduction of 10 percent, probit analysis
[14] = effective dose for growth reduction of 20 percent, probit analysis

Cc1c(-c2cc(N)c(Cl)c(C(=O)O)n2)ccc(Cl)c1F [Compound 52]
Visual Growth Reduction (%) 21 Days After Application, PAPRH ([1]; 35 g ai/ha): D (60-74) | Visual Growth Reduction (%) 21 Days After Application, PAPRH ([1]; 70 g ai/ha): D (60-74) | Visual Growth Reduction (%) 21 Days After Application, PAPRH ([1]; 140 g ai/ha): C (75-84) | GR50, PAPRH [1, 10]: 4 g ai/ha | GR80, PAPRH [1, 11]: >140 g ai/ha | GR90, PAPRH [1, 12]: >140 g ai/ha | Visual Growth Reduction (%) 21 Days After Application, SASKR ([2]; 35 g ai/ha): D (60-74) | Visual Growth Reduction (%) 21 Days After Application, SASKR ([2]; 70 g ai/ha): D (60-74) | Visual Growth Reduction (%) 21 Days After Application, SASKR ([2]; 140 g ai/ha): C (75-84) | GR50, SASKR [2, 10]: 1 g ai/ha | GR80, SASKR [2, 11]: >140 g ai/ha | GR90, SASKR [2, 12]: >140 g ai/ha | pest or weed control at 35 g/ha ([3]; Apera spica-venti, post-emergence, 504 h, 35 g ai/ha, postemergence, read-out: Visual Growth Reduction (%) 21 Days After Application, APESV): 60 to 74% | pest or weed control at 70 g/ha ([3]; Apera spica-venti, post-emergence, 504 h, 70 g ai/ha, postemergence, read-out: Visual Growth Reduction (%) 21 Days After Application, APESV): 75 to 84% | pest or weed control at 140 g/ha ([3]; Apera spica-venti, post-emergence, 504 h, 140 g ai/ha, postemergence, read-out: Visual Growth Reduction (%) 21 Days After Application, APESV): 85 to 94% | GR50, APESV [3, 10]: 23 g ai/ha | GR80, APESV [3, 11]: 63 g ai/ha | GR90, APESV [3, 12]: 107 g ai/ha | pest or weed control at 35 g/ha ([4]; Bassia scoparia, post-emergence, 504 h, 35 g ai/ha, postemergence, read-out: Visual Growth Reduction (%) 21 Days After Application, KCHSC): 95 to 100% | pest or weed control at 70 g/ha ([4]; Bassia scoparia, post-emergence, 504 h, 70 g ai/ha, postemergence, read-out: Visual Growth Reduction (%) 21 Days After Application, KCHSC): 95 to 100% | pest or weed control at 140 g/ha ([4]; Bassia scoparia, post-emergence, 504 h, 140 g ai/ha, postemergence, read-out: Visual Growth Reduction (%) 21 Days After Application, KCHSC): 95 to 100% | GR50, KCHSC [4, 10]: 1 g ai/ha | GR80, KCHSC [4, 11]: 3 g ai/ha | GR90, KCHSC [4, 12]: 9 g ai/ha | Visual Growth Reduction (%) 21 Days After Application, VERPE ([5]; 35 g ai/ha): G (0-29) | Visual Growth Reduction (%) 21 Days After Application, VERPE ([5]; 70 g ai/ha): G (0-29) | Visual Growth Reduction (%) 21 Days After Application, VERPE ([5]; 140 g ai/ha): E (45-59) | GR50, VERPE [5, 10]: >140 g ai/ha | GR80, VERPE [5, 11]: >140 g ai/ha | GR90, VERPE [5, 12]: >140 g ai/ha | Visual Growth Reduction (%) 21 Days After Application, LAMPU ([6]; 35 g ai/ha): A (95-100) | Visual Growth Reduction (%) 21 Days After Application, LAMPU ([6]; 70 g ai/ha): A (95-100) | Visual Growth Reduction (%) 21 Days After Application, LAMPU ([6]; 140 g ai/ha): A (95-100) | GR50, LAMPU [6, 10]: <17.5 g ai/ha | GR80, LAMPU [6, 11]: <17.5 g ai/ha | GR90, LAMPU [6, 12]: <17.5 g ai/ha | pest or weed control at 35 g/ha ([7]; Hordeum vulgare, post-emergence, 504 h, 35 g ai/ha, postemergence, read-out: Visual Growth Reduction (%) 21 Days After Application, HORSS): 60 to 74% | pest or weed control at 70 g/ha ([7]; Hordeum vulgare, post-emergence, 504 h, 70 g ai/ha, postemergence, read-out: Visual Growth Reduction (%) 21 Days After Application, HORSS): 75 to 84% | pest or weed control at 140 g/ha ([7]; Hordeum vulgare, post-emergence, 504 h, 140 g ai/ha, postemergence, read-out: Visual Growth Reduction (%) 21 Days After Application, HORSS): 85 to 94% | GR10, HORSS [7, 13]: 1 g ai/ha | GR20, HORSS [7, 14]: 2 g ai/ha | pest or weed control at 35 g/ha ([8]; Triticum aestivum, post-emergence, 504 h, 35 g ai/ha, postemergence, read-out: Visual Growth Reduction (%) 21 Days After Application, TRZSS): 60 to 74% | pest or weed control at 70 g/ha ([8]; Triticum aestivum, post-emergence, 504 h, 70 g ai/ha, postemergence, read-out: Visual Growth Reduction (%) 21 Days After Application, TRZSS): 75 to 84% | pest or weed control at 140 g/ha ([8]; Triticum aestivum, post-emergence, 504 h, 140 g ai/ha, postemergence, read-out: Visual Growth Reduction (%) 21 Days After Application, TRZSS): 75 to 84% | GR10, TRZSS [8, 13]: 1 g ai/ha | GR20, TRZSS [8, 14]: 1 g ai/ha | Visual Growth Reduction (%) 21 Days After Application, POLCO ([9]; 35 g ai/ha): D (60-74) | Visual Growth Reduction (%) 21 Days After Application, POLCO ([9]; 70 g ai/ha): C (75-84) | Visual Growth Reduction (%) 21 Days After Application, POLCO ([9]; 140 g ai/ha): A (95-100) | GR50, POLCO [9, 10]: 10 g ai/ha | GR80, POLCO [9, 11]: 41 g ai/ha | GR90, POLCO [9, 12]: 84 g ai/ha

Source: patent US10765114B2, “4-amino-6-(pyridyl and 2-substitutedphenyl)-picolinates and 6-amino-2-(pyridyl and 2-substitutedphenyl)-pyrimidine-4-carboxylates and their use as herbicides” (Dow AgroSciences LLC, priority 2013, dated 2020)
